Blank lines part the entries; values can stand above or below the compound they belong to. The source made the active and inactive calls.
Key:
Prothrombin = Prothrombin (Bos taurus, UniProt P00735); assay: thrombin protease inhibitors – biochemical, fluorescence polarization, uHTS hits, dose response (AID 602369); format: functional
[1] = molecular target: 26S proteasome non-ATPase regulatory subunit 14 (Homo sapiens, UniProt O00487); assay: inhibition of proteasome subunit RPN11 – biochemical, fluorescence polarization, uHTS hits, confirmation (AID 602368); format: functional
Chain of 26S proteasome non-ATPase regulatory subunit 14 (O00487 whole entry): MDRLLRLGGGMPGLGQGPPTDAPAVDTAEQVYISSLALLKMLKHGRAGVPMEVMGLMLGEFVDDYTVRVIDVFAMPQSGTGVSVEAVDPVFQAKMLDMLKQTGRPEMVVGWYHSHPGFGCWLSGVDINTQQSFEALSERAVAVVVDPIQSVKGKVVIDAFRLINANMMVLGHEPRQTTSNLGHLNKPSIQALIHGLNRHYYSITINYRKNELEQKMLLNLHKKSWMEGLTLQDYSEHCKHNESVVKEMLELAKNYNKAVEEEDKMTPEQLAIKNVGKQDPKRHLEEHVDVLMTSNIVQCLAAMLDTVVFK

[2] = molecular target: 72 kDa type IV collagenase (Homo sapiens, UniProt P08253); assay: Dose Response validation of uHTS RPN11 inhibitor hits using a MMP-2 Fluorescence assay.; format: functional
Chain of 72 kDa type IV collagenase (P08253 whole entry): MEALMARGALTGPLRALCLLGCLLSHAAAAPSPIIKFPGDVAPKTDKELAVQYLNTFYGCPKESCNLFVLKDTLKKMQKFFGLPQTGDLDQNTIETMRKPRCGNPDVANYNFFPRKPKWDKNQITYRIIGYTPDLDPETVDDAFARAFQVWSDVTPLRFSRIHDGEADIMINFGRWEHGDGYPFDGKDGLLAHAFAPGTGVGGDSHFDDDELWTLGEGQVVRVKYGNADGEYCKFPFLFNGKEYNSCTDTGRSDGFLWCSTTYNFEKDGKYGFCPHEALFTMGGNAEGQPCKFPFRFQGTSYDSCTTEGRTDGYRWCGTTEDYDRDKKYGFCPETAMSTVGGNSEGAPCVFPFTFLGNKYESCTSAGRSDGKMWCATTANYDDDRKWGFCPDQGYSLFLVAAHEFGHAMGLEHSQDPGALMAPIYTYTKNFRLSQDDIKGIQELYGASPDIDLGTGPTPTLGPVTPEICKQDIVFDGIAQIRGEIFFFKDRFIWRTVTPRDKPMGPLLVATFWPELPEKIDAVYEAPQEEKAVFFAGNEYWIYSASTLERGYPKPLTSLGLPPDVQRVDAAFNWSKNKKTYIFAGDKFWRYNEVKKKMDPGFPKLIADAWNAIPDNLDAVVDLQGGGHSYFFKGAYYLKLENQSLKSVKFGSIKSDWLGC

X-box-binding protein 1 = X-box-binding protein 1 (Homo sapiens, UniProt P17861); format: functional, Cricetulus griseus;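 also: confirmatory dose-response counter-screen serving a CHOP assay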
Chain of X-box-binding protein 1 (P17861 whole entry): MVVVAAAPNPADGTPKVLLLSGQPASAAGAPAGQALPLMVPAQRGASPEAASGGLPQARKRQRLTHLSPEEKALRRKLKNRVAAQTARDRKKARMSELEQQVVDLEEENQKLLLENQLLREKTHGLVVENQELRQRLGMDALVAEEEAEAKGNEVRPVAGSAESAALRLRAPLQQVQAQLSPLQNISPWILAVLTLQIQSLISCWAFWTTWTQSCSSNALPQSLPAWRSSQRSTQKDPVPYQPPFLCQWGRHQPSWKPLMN

ORF 73 = molecular target: T1, ORF 73 (Human herpesvirus 8, UniProt O40947); assay: KSHV LANA DNA-binding disruption – biochemical, fluorescence polarization, cherry-picked samples, dose response (AID 504725); set-up: species or system Human gammaherpesvirus 8;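 also: fluorescence polarization of a labeled DNA duplex reporting LANA DNA binding; potency is for inhibitors that block LANA binding to the DNA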
T1 sequence (O40947 whole entry): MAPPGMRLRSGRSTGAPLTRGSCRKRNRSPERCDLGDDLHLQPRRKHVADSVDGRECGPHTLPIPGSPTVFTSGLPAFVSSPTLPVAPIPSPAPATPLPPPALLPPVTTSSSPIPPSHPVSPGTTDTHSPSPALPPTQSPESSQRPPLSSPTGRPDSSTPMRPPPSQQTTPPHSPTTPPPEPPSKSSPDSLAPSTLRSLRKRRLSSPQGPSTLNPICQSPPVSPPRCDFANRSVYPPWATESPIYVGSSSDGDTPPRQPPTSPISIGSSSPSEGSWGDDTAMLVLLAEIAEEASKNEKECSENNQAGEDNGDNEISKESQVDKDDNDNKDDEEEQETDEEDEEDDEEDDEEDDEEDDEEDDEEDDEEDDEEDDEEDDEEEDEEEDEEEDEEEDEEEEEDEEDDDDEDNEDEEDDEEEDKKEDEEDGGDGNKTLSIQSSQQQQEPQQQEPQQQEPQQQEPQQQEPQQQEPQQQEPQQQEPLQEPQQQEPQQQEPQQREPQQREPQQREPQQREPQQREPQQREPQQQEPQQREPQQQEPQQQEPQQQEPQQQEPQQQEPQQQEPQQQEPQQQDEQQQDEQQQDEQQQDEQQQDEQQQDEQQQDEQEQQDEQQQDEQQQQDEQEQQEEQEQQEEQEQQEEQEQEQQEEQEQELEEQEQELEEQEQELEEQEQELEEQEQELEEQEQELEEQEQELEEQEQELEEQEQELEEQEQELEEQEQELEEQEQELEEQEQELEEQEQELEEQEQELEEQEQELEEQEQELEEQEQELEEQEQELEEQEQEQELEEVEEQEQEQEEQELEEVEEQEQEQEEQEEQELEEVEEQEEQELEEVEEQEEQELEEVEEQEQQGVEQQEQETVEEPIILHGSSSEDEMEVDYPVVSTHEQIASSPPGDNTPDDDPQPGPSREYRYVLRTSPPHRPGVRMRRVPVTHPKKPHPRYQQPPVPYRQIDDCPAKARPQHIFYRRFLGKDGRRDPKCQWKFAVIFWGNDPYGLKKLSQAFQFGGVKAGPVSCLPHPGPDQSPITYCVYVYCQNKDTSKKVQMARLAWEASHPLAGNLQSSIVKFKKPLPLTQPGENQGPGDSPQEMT

Keap1/Nrf2 = Keap1/Nrf2 (Homo sapiens, UniProt Q14145); assay: disruptors of Keap1 binding to Nrf2 peptide – biochemical, fluorescence polarization, cherry-picked samples, dose response (AID 588683)
Chain of Keap1/Nrf2 (Q16236 whole entry): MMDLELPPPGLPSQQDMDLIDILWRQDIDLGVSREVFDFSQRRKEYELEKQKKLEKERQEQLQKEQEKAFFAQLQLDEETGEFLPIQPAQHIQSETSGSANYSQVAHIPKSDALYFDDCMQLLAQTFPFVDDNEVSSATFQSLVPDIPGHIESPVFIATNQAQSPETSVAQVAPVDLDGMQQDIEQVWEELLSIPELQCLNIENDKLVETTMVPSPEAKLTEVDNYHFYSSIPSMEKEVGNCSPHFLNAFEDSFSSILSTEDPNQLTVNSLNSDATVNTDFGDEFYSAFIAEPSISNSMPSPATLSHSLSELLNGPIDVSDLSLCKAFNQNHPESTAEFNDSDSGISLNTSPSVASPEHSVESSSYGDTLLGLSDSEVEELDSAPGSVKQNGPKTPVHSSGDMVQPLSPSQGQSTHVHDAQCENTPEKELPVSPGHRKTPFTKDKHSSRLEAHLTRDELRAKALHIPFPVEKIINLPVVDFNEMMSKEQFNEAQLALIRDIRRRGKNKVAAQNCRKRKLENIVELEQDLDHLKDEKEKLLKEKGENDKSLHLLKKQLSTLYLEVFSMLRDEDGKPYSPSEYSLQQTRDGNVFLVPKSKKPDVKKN
Chain of Keap1/Nrf2 (Q14145 whole entry): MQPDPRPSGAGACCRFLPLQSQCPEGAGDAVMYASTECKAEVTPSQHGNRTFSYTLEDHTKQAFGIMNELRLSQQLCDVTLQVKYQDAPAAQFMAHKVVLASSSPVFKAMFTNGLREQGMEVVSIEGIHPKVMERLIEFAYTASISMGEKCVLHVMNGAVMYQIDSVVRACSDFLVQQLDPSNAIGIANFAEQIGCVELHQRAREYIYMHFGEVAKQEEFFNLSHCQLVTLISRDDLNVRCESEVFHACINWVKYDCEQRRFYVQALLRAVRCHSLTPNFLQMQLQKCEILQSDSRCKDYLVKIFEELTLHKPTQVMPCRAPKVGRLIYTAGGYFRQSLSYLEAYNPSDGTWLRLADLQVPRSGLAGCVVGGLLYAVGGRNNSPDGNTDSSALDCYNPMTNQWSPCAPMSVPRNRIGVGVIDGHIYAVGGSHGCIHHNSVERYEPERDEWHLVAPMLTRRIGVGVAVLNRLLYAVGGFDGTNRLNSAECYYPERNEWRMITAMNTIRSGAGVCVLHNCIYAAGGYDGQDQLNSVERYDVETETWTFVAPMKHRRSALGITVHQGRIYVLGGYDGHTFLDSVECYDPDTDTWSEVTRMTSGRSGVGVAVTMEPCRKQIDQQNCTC

Salmon testes DNA = assay: acridine orange-DNA binding displacement – biochemical, fluorescence polarization, cherry-picked samples, set 2, artefact control for KSHV LANA DNA-binding inhibitor project, dose response (AID 504727); set-up: species or system Salmonidae
[3] = molecular target: T2, Corticotropin-releasing factor receptor 2/Corticotropin-releasing factor-binding protein (Homo sapiens, UniProt P24387+Q13324); assay: activators of CRF receptor 2 with binding protein – uHTS hits, confirmation (AID 602473); format: functional; details: read-out: EC50_Mean
T2 sequence (Q13324 whole entry): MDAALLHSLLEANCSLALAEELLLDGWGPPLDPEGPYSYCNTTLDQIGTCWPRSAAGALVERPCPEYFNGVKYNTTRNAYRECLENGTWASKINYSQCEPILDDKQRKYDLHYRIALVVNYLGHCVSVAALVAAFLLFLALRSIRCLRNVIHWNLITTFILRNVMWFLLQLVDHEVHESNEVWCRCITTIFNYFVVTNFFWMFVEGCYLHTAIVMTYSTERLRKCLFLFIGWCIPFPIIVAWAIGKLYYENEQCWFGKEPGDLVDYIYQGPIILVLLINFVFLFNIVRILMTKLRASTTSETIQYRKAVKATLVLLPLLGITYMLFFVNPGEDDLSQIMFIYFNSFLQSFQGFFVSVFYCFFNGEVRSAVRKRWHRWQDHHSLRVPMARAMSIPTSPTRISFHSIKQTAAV
T2 sequence (P24387 whole entry): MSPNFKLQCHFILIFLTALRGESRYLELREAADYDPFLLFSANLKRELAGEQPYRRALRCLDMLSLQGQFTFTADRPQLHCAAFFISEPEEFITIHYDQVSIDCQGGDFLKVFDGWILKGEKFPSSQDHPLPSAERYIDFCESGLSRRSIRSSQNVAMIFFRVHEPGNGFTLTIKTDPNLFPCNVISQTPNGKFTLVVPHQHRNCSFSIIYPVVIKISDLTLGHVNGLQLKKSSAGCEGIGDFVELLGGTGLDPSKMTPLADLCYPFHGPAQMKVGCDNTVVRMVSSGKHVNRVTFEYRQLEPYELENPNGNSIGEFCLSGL

Phosphomannomutase 2 = molecular target: T3, Phosphomannomutase 2 (Homo sapiens, UniProt O15305); assay: Counter screen SAR assay for PMM2 inhibitors via a fluorescence intensity assay. [Related pubchem assays (depositor defined):AID1545, AID1574]
T3 sequence (O15305 whole entry): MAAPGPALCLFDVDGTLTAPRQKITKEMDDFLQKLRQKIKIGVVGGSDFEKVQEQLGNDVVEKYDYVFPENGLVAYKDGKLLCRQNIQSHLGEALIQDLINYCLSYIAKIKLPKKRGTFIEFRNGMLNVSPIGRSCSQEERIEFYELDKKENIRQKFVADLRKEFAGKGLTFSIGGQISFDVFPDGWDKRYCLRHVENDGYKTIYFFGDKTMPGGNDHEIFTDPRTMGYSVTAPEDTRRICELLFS

[4] = NIH3T3 cell viability loss – ATP luminescence, mouse fibroblasts, counter-screen, dose response (AID 2010); format: functional, cell-based;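 also: cells exposed to compound for about 90 hours before reading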
[5] = viability of HCT116 lacking mutant beta-catenin – cell-based, human colon tumor, dose response (AID 1045); format: functional;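 also: HCT116 colon tumor cells with beta catenin knocked out; cells exposed to compound for 60 hours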
MDA-MB-435 = assay: cells; format: functional, cell-based; details: Homo sapiens
[6] = viability of PTEN-deleted HCT116 cells – cell-based, HCT116 PTEN knockout, dose response (AID 1047); format: functional;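 also: HCT116 colon tumor cells with PTEN knocked out; cells exposed to compound for 60 hours before readout; potency for loss of cell viability measured by luminescence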
cells = format: functional, cell-based; details: PPC-1
Cytochrome P450 2C19 = Cytochrome P450 2C19 (Homo sapiens, UniProt P33261); assay: Cytochrome panel assay with activity outcomes. Panel member name: p450-cyp2c19 Compounds with AC50 equal or less than 10 uM are considered active; format: functional; details: read-out: AC50
Chain of Cytochrome P450 2C19 (P33261 whole entry): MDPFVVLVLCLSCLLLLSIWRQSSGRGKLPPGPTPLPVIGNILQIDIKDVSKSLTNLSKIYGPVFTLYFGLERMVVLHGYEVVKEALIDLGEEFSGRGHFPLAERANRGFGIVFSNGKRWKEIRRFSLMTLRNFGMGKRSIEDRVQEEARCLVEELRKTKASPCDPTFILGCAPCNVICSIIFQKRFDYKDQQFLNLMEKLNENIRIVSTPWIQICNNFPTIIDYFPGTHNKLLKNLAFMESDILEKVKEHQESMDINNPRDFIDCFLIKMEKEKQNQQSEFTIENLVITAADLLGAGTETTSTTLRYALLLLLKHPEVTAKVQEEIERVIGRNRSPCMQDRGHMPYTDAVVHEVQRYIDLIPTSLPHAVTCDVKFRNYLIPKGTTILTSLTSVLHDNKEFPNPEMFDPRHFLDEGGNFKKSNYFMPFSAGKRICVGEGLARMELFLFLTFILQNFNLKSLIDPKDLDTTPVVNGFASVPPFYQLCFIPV

- IC50 (Prothrombin): 29.7 µM (active)
- IC50 [1]: 21.5 µM (active)
- IC50 [2]: > 100 µM (inactive)
- Absolute IC50 (XBP1) (X-box-binding protein 1): 10 µM
Compound: Cc1cccc(OCc2nnc(SCc3nc(O)c4ccc(C(F)(F)F)cc4n3)o2)c1

- AC50 (ORF 73): 172 µM (active)
- AC50 (Keap1/Nrf2): > 52 µM (inactive)
- EC50 [3]: 5.5 µM (active)
Compound: Cc1ccccc1N1C(=O)c2cccc3c(N(C)CCO)ccc(c23)C1=O
- AC50 (Salmon testes DNA): 68.4 µM (active)

Compound: CSc1nc(-c2ccc(C)cc2)nc(C(Cl)Cl)n1
- IC50 (Phosphomannomutase 2): > 100 µM (inactive)
- EC50 [4]: > 60 µM (inconclusive)
- EC50 [5]: 0.714 µM (active)
- IC50 (MDA-MB-435): > 10 µM (inactive)
- EC50 [6]: 0.824 µM (active)
- IC50 (cells): > 10 µM (inactive)
- AC50 (Cytochrome P450 2C19): 0.398 µM (inconclusive)
